From patent US20230406853A1, “COVALENT CDK2-BINDING COMPOUNDS FOR THERAPEUTIC PURPOSES” (Umbra Therapeutics, Inc., priority 2021, published 2023)
pIC50: −log10 of the molar value.

The molecules below were run against CycE1-CDK2 (Homo sapiens, UniProt P24941) (assay: Cdk2 Enzymatic TR-FRET Assay). Conditions: CDK2/CycE 5 nM, ATP 100 μM, 60 minutes pre-incubation with compound; read-out: CDK2 Kinase.
Assay type: biochemical
Source text: A TR-FRET system was used to detect CycE1-CDK2 kinase activity. The assay used a Europium-labeled anti-phospho-Ser/Thr antibody and ULight™-labeled peptide substrate (eIF4E-binding protein 1). When CycE1-CDK2 phosphorylates the peptide the phosphorylated Thr is recognized by the Europium-labeled anti-phospho-Ser/Thr antibody. Upon excitation of the Europium donor fluorophore at 337 nm, energy is transferred to the ULight™ acceptor dye on the substrate, resulting in the emission of light at 665 nm. The fluorescent signal is proportional to the level of ULight™ peptide phosphorylation and to the kinase activity.
The stock solution was prepared as follows: • 1× Reaction buffer: 50 mM HEPES pH 7.5, 10 mM MgCl2, 0.5 mM TCEP, 0.01% Tween®20, 1 mM EGTA, 0.001% fatty acid free (faf)-BSA; • 1× Detection buffer: equilibrate the Detection buffer at RT for at least 20 minutes then dilute 10-fold the stock in water; • 4×ENZYME mix: CDK2/CycE enzyme (5 nM final concentration in kinase reaction) in 1× Reaction buffer; • 4×SUBSTRATE mix: 4E-BP substrate (50 nM final concentration in kinase reaction)+ATP (100 μM final concentration in kinase reaction) in 1× Reaction buffer • 2×STOP/DETECTION mix: EDTA (10 mM final concentration in assay)+Anti-Phosphate antibody (0.5 nM final concentration in assay) in 1× Detection buffer • Neutral Control: Assay with no inhibition (MAX activity) • Inhibitor Control: Assay with IC100 (1 mM) reference inhibitor JNJ7706621 (MIN activity)
The assay was assembled directly in a white, small volume, Proxiplate (PerkinElmer) as follows: • Step 1: Charge compounds=5 μL/well • Step 2: Charge kinase=2.5 μL/well→total volume 7.5 μL/well • The plate is sealed and incubated at room temperature for 60 minutes • Step 3: Substrate mix (substrate/ATP)=2.5 μL/well→total enzymatic reaction volume 10 μL/well • The plate is sealed and incubated at room temperature for 60 minutes • Step 4: Stop/Detection mix (EDTA/antibody)=10 μL/well→total volume 20 μL/well • The plate is sealed and incubated at room temperature for at least 2 hours and fluorescence signal is measured at PHERAstar FSX The reading conditions are the followings for PHERAstar FSX:
A 384-microtiter plate (MTP), containing 20 test compounds in eight-points dose response, is prepared. Test compounds dose response curves are prepared in automation in 100% DMSO in a CyBio Felix, starting from a DMSO stock solution of 10 mM. To obtain the eight-points dose-response curve, a serial dilution protocol in 100% DMSO is performed for each compound by using a 96 MTP as a support. 20 μL of the 10 mM stock solutions are transferred in row A of a 96 MTP U-bottom from column 2 to 11 for a total of 10 compounds/plate. Starting from the 10 mM stock, serial dilutions across rows, from A to B and proceeding up to H, are performed for each compound by transferring 6.3 μL of the more concentrated fluid in 13.7 μL of 100% DMSO.
In order to generate duplicate data points each well of the 96 MTP is then replicated into two wells of a 384 MTP plate for each compound and for each concentration to be tested. The 384 MTP compound plate is used as source plate in a “mother to child” process with a CyBi®-Well dispenser in which 1 μL of compound is moved into a destination plate pre-filled with 24 μL of reaction buffer, obtaining 2× concentrated compound solution.
Genedata Screener® 17.0 was used for data analysis. In the implemented workflow, the following calculations were conducted: • Calculate the Response Value (KRV) from the respective original data as follow:
HTRF Assay: Ratio=665 nm_FRET/620 nm_Ab*10000 • Calculate the % Inhibition of the compound (Inhibitory effect). KRV was normalized versus Neutral Controls and Inhibitor Controls (JNJ7706621) to obtain Activity % according to the following formula:
Activity %=−100*(x−<Neutral Control>)/(<Inhibitor Control>−<Neutral Control>) […]

SMILES	pIC50
CS(=O)(=O)N1CCC(Nc2ncc3ccc(=O)n(CC(=O)Nc4ccc(S(=O)(=O)n5cnc(C6CCC6)n5)cc4)c3n2)CC1 [Compound 258]	< 3.70
CN1CCC(Nc2ncc3ccc(=O)n(CC(=O)Nc4ccc(S(=O)(=O)n5cnc(C6CC6)n5)cc4)c3n2)CC1 [Compound 280]	< 3.70
CS(=O)(=O)N1CCC(Nc2ncc3ccc(=O)n(CC(=O)Nc4ccc(S(=O)(=O)n5cnc(C6CCCC6)n5)cc4)c3n2)CC1 [Compound 273]	< 3.70
CCOCc1cc2cnc(NC3CCN(S(C)(=O)=O)CC3)nc2n(CCCS(=O)(=O)n2cnc(C3CC3)n2)c1=O [Compound 261]	4.00 to 5.00
CC(C)CNc1ncc2ccc(=O)n(CC(=O)Nc3ccc(S(=O)(=O)n4cnc(C5CC5)n4)cc3)c2n1 [Compound 292]	< 3.70
CCOCc1cc2cnc(NC3CCN(S(C)(=O)=O)CC3)nc2n(CCCS(=O)(=O)n2cnc(-c3ccccc3)n2)c1=O [Compound 256]	< 3.70
CC(C)CNc1ncc2ccc(=O)n(CCCS(=O)(=O)n3cnc(C4CC4)n3)c2n1 [Compound 269]	> 5.00
O=C(Cn1c(=O)ccc2cnc(NC3CC(F)(F)C3)nc21)Nc1ccc(S(=O)(=O)n2cnc(C3CC3)n2)cc1 [Compound 281]	> 5.00
CS(=O)(=O)N1CCC(Nc2ncc3cc(CO)c(=O)n(CCCS(=O)(=O)n4cnc(C5CC5)n4)c3n2)CC1 [Compound 300]	> 5.00
O=C(Cn1c(=O)ccc2cnc(NCC3CCCCC3)nc21)Nc1ccc(S(=O)(=O)n2cnc(C3CC3)n2)cc1 [Compound 282]	< 3.70
O=c1ccc2cnc(NC3CCOC3)nc2n1CCCS(=O)(=O)n1cnc(C2CC2)n1 (stereo not drawn) [Compound 267]	4.00 to 5.00
O=C(Cn1c(=O)ccc2cnc(NCC3CC3)nc21)Nc1ccc(S(=O)(=O)n2cnc(C3CC3)n2)cc1 [Compound 278]	< 3.70
O=c1ccc2cnc(NC3CCCCCC3)nc2n1CCCS(=O)(=O)n1cnc(C2CC2)n1 [Compound 270]	> 5.00
CS(=O)(=O)N1CCC(Nc2ncc3ccc(=O)n(CCOCCCS(=O)(=O)n4cncn4)c3n2)CC1 [Compound 231]	> 5.00
O=c1ccc2cnc(NCC3CC3)nc2n1CCCS(=O)(=O)n1cnc(C2CC2)n1 [Compound 266]	4.00 to 5.00
Cc1cc(S(=O)(=O)n2cncn2)ccc1NC(=O)Cn1c(=O)ccc2cnc(NC3CCN(S(C)(=O)=O)CC3)nc21 [Compound 250]	> 5.00
O=c1ccc2cnc(NCC3CCCCC3)nc2n1CCCS(=O)(=O)n1cnc(C2CC2)n1 [Compound 268]	< 3.70
CS(=O)(=O)N1CCC(Nc2ncc3ccc(=O)n(Cc4ccc(S(=O)(=O)n5cnc(C6CC6)n5)cc4)c3n2)CC1 [Compound 243]	> 5.00
O=c1ccc2cnc(NC3CC3)nc2n1CCCS(=O)(=O)n1cnc(C2CC2)n1 [Compound 271]	> 5.00
O=c1ccc2cnc(NC3CC(F)(F)C3)nc2n1CCCS(=O)(=O)n1cnc(C2CC2)n1 [Compound 263]	> 5.00
CCOCc1cc2cnc(NC3CCN(S(C)(=O)=O)CC3)nc2n(CCCS(=O)(=O)n2cncn2)c1=O [Compound 265]	4.00 to 5.00
CS(=O)(=O)N1CCC(Nc2ncc3ccc(=O)n(CC(=O)NCc4ccc(S(=O)(=O)n5cncn5)cc4)c3n2)CC1 [Compound 236]	> 5.00
CNc1ncc2ccc(=O)n(CC(=O)Nc3ccc(S(=O)(=O)n4cnc(C5CC5)n4)cc3)c2n1 [Compound 248]	> 5.00
CS(=O)(=O)N1CCC(Nc2ncc3cc(CCO)c(=O)n(CCCS(=O)(=O)n4cncn4)c3n2)CC1 [Compound 297]	> 5.00

Now from value to molecule:

pIC50	SMILES
> 5.00	Cc1cc(S(=O)(=O)n2cnc(C3CC3)n2)ccc1NC(=O)Cn1c(=O)ccc2cnc(NC3CCN(S(C)(=O)=O)CC3)nc21 [Compound 251]
> 5.00	CS(=O)(=O)N1CCC(Nc2ncc3ccc(=O)n(CC(=O)Nc4ccc(S(=O)(=O)n5cnc(CO)n5)cc4)c3n2)CC1 [Compound 259]
> 5.00	Cc1cc(NC(=O)Cn2c(=O)ccc3cnc(NC4CCN(S(C)(=O)=O)CC4)nc32)ccc1S(=O)(=O)n1cnc(C2CC2)n1 [Compound 239]
> 5.00	CS(=O)(=O)N1CCC(Nc2ncc3ccc(=O)n(CCS(=O)(=O)n4cnc(C5CC5)n4)c3n2)CC1 [Compound 264]
> 5.00	CNc1ncc2ccc(=O)n(CC(=O)Nc3ccc(S(=O)(=O)n4cncn4)cc3)c2n1 [Compound 247]
> 5.00	CS(=O)(=O)N1CCC(Nc2ncc3cc(C(F)F)c(=O)n(CCOC(=O)c4ccc(S(=O)(=O)n5cncn5)cc4)c3n2)CC1 [Compound 226]
> 5.00	O=C(Cn1c(=O)ccc2cnc(NC3CCOC3)nc21)Nc1ccc(S(=O)(=O)n2cnc(C3CC3)n2)cc1 (stereo not drawn) [Compound 275]
> 5.00	CS(=O)(=O)N1CCC(Nc2ncc3ccc(=O)n(CCOCCCS(=O)(=O)n4cnc(C5CC5)n4)c3n2)CC1 [Compound 233]
> 5.00	CS(=O)(=O)N1CCC(Nc2ncc3cc(Cl)c(=O)n(CCCS(=O)(=O)n4cncn4)c3n2)CC1 [Compound 285]
> 5.00	Cc1cc2cnc(NC3CCN(S(C)(=O)=O)CC3)nc2n(CCCS(=O)(=O)n2cnc(-c3ccccc3)n2)c1=O [Compound 299]
> 5.00	CS(=O)(=O)N1CCC(Nc2ncc3cc(CO)c(=O)n(CCCS(=O)(=O)n4cncn4)c3n2)CC1 [Compound 296]
> 5.00	O=C(Cn1c(=O)ccc2cnc(NC3CC3)nc21)Nc1ccc(S(=O)(=O)n2cnc(C3CC3)n2)cc1 [Compound 283]
> 5.00	CC(C(=O)Nc1ccc(S(=O)(=O)n2cnc(-c3ccccc3)n2)cc1)n1c(=O)ccc2cnc(NC3CCN(S(C)(=O)=O)CC3)nc21 (stereo not drawn) [Compound 293]
> 5.00	CS(=O)(=O)N1CCC(Nc2ncc3cc(CO)c(=O)n(CCCS(=O)(=O)n4cnc(-c5ccccc5)n4)c3n2)CC1 [Compound 290]
> 5.00	CS(=O)(=O)N1CCC(Nc2ncc3ccc(=O)n(Cc4ccc(S(=O)(=O)n5cnc(-c6ccccc6)n5)cc4)c3n2)CC1 [Compound 242]
> 5.00	CS(=O)(=O)N1CCC(Nc2ncc3ccc(=O)n(CC(=O)Nc4ccc(S(=O)(=O)n5cncn5)cc4)c3n2)CC1 [Compound 228]
> 5.00	CC(=O)Nc1ncn(S(=O)(=O)c2ccc(NC(=O)Cn3c(=O)ccc4cnc(NC5CCN(S(C)(=O)=O)CC5)nc43)cc2)n1 [Compound 272]
> 5.00	CC(C(=O)Nc1ccc(S(=O)(=O)n2cnc(C3CC3)n2)cc1)n1c(=O)ccc2cnc(NC3CCN(S(C)(=O)=O)CC3)nc21 (stereo not drawn) [Compound 254]
> 5.00	CS(=O)(=O)N1CCC(Nc2ncc3ccc(=O)n(Cc4ccc(S(=O)(=O)n5cncn5)cc4)c3n2)CC1 [Compound 241]
> 5.00	Cc1cc2cnc(NC3CCN(S(C)(=O)=O)CC3)nc2n(CCCS(=O)(=O)n2cnc(C3CC3)n2)c1=O [Compound 289]
> 5.00	CS(=O)(=O)N1CCC(Nc2ncc3ccc(=O)n(CCCS(=O)(=O)n4cnc(-c5ccccc5)n4)c3n2)CC1 [Compound 246]
> 5.00	CS(=O)(=O)N1CCC(Nc2ncc3ccc(=O)n(CC(=O)NCc4ccc(S(=O)(=O)n5cnc(C6CC6)n5)cc4)c3n2)CC1 [Compound 235]
> 5.00	Cc1cc2cnc(NC3CCN(S(C)(=O)=O)CC3)nc2n(CCCS(=O)(=O)n2cncn2)c1=O [Compound 298]
> 5.00	Cc1ncn(S(=O)(=O)c2ccc(NC(=O)Cn3c(=O)ccc4cnc(NC5CCN(S(C)(=O)=O)CC5)nc43)cc2)n1 [Compound 253]
